According to PubChem BioAssay (NCI):
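Method: 48-hour compound exposure of cells in 96-well plates, five concentrations, linear interpolation of endpoints. Definition used: TGI = concentration required for complete inhibition of growth.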

Key:
Experiment in all cases: DTP human tumour cell line panel, 48 h
PC-3 prostate = system: PC-3 prostate
NCI/ADR-RES ovarian = system: NCI/ADR-RES ovarian
HOP-92 NSCLC = system: HOP-92 NSCLC
SW-620 colon = system: SW-620 colon
OVCAR-8 ovarian = system: OVCAR-8 ovarian
SK-OV-3 ovarian = system: SK-OV-3 ovarian
HOP-62 NSCLC = system: HOP-62 NSCLC
MCF7 breast = system: MCF7 breast
U251 CNS = system: U251 CNS
DU-145 prostate = system: DU-145 prostate
HCC-2998 colon = system: HCC-2998 colon
A498 renal = system: A498 renal

| SMILES | TGI (PC-3 prostate) | TGI (NCI/ADR-RES ovarian) | TGI (HOP-92 NSCLC) | TGI (SW-620 colon) | TGI (OVCAR-8 ovarian) | TGI (SK-OV-3 ovarian) | TGI (HOP-62 NSCLC) | TGI (MCF7 breast) | TGI (U251 CNS) | TGI (DU-145 prostate) | TGI (HCC-2998 colon) | TGI (A498 renal) |
| --- | --- | --- | --- | --- | --- | --- | --- | --- | --- | --- | --- | --- |
| O=c1c2ccccc2[nH]c(=S)n1-c1ccc(N=Nc2cccc3c(O)cccc23)cc1 | > 100 µM | > 100 µM | > 100 µM | > 100 µM | > 100 µM | > 100 µM | > 100 µM | 35.2 µM | > 100 µM | > 100 µM | > 100 µM | – |
| CC(C)(C)OC(=O)NCCCCC(NC(=O)OCc1ccccc1)C(N)=O (configuration not stated) | > 100 µM | > 100 µM | – | > 100 µM | > 100 µM | > 100 µM | > 100 µM | > 100 µM | > 100 µM | > 100 µM | > 100 µM | – |
| O=c1[nH]c2nc3ccccc3c(=O)n2/c1=C/c1ccc(O)cc1 | > 100 µM | > 100 µM | > 100 µM | 56.4 µM | 54.8 µM | > 100 µM | > 100 µM | > 100 µM | 83.6 µM | > 100 µM | 69.9 µM | – |
| CCCN=C1CC(C)Nc2ccccc2N1 (configuration not stated) | > 100 µM | > 100 µM | – | > 100 µM | > 100 µM | > 100 µM | > 100 µM | – | > 100 µM | > 100 µM | – | > 100 µM |
| C[N+](C)(C)CC(=O)N/N=c1\cc(C(=O)Nc2ccc(N=O)cc2C#N)oc2cc(O)ccc12 | – | – | > 100 µM | > 100 µM | > 100 µM | > 100 µM | > 100 µM | – | > 100 µM | – | > 100 µM | > 100 µM |
| N#C/C(=C\NC(=S)Nc1ccc(S(=O)(=O)Nc2ccccn2)cc1)C(N)=O | > 100 µM | > 100 µM | > 100 µM | > 100 µM | > 100 µM | > 100 µM | > 100 µM | > 100 µM | > 100 µM | > 100 µM | – | > 100 µM |
| c1ccc(C[P+]2(c3ccccc3)c3ccccc3-c3ccccc32)cc1 | > 100 µM | – | > 100 µM | > 100 µM | > 100 µM | > 100 µM | > 100 µM | > 100 µM | – | > 100 µM | > 100 µM | – |
| CCOc1ccc(N/C(=C(/C(Cl)=C(/Cl)NCCN)[N+](=O)[O-])n2nnc3ccccc32)cc1 | > 100 µM | > 100 µM | – | 21.6 µM | 30.4 µM | > 100 µM | > 100 µM | > 100 µM | > 100 µM | – | > 100 µM | > 100 µM |
| CCCCc1c(O)nc(Nc2nc3ccccc3[nH]2)[nH]c1=O | > 100 µM | > 100 µM | – | > 100 µM | > 100 µM | > 100 µM | > 100 µM | > 100 µM | > 100 µM | > 100 µM | – | > 100 µM |
| Nc1ccccc1Nc1ccccc1C(=O)[O-].Nc1ccccc1Nc1ccccc1C(=O)[O-].[Cu+2] | – | – | – | > 100 µM | > 100 µM | > 100 µM | > 100 µM | – | > 100 µM | – | > 100 µM | > 100 µM |
| O=C1CC(c2ccco2)C2(C(=O)NC(=O)NC2=O)C(c2ccco2)C1 (configuration not stated) | > 75 µM | > 75 µM | – | > 75 µM | > 75 µM | > 75 µM | > 75 µM | > 75 µM | > 75 µM | > 75 µM | > 75 µM | > 75 µM |
